Results: patent US8604003B2, “Promoter for hard tissue formation” (Seikagaku Corporation, priority 2005, dated 2013)
“Also recorded” adds a separate entry of the source.

Tests used:
cell strain MC3T3-E1 [1] = assay: Cellular ALP activity (Bessey-Lowry method), 2% FBS-containing αMEM; format: cell-based, mouse; settings: 50 μg/ml sample, first week after confluence, vs control without sample (FIG. 1, FIG. 2)
Description: (§1) A mouse bone marrow-derived mesenchymal cell strain, ST2 cell strain, and a mouse osteoblast-like cell strain having more high differentiation degree, MC3T3-E1 cell strain, (both obtained from RIKEN CELL BANK), were used. In the following, culturing of these cells was carried out all under a condition of 37° C. and 5% CO2. Additionally, antibiotics (100 U/ml in final concentration of penicillin G, 100 μg/ml in final concentration of streptomycin and 250 μg/ml in final concentration of gentamicin) were allowed to coexist in all of the media to be used for the culturing of these cells.
(§2) Cellular ALP activity was measured as the index of cell differentiation. Cells were inoculated onto a 24 well culture plate at a density of 5×10^3 cells/well and cultured by adding 50 μg/ml in final concentration of each sample to 2% FBS-containing αMEM. On the first week after the cells reached confluent, ALP activity was measured by the following enzymologic method (Bessey-Lowry method).
(§3) After washing the cultured cells with PBS, the cells were disrupted and stirred for 40 seconds in 10 mM Tris-HCl buffer (pH 7.4, 500 μl) using an ultra sonic homogenizer (Handy Sonic model UR-20P; mfd. by Tomy Seiko Co., Ltd.). Next, 25 μl of the sample liquid was added to 125 μl of an ALP buffer (0.1M carbonate buffer pH 9.8, 6.7 mM p-nitrophenyl phosphate, 2 mM MgCl2) and incubated at 37° C. for 30 minutes. After terminating the reaction by adding 125 μL of 0.2 N NaOH, the absorbance at 405 nm was measured by using a microplate reader (Model 550, manufactured by Bio-Rad Laboratories). The calculated ALP activity was shown by unit per the number of cells. Additionally, a case in which the sample to be tested was not added was used as a control.
(§4) The results in which each sample to be tested was added to the cell strain MC3T3-E1 are shown in FIG. 1, and the results in which a sample to be tested (Hep, 2DSH, 6DSH or NDSH) was added to the cell strain MC3T3-E1 are shown in FIG. 2, and the results in which a sample to be tested (Hep, 2DSH, 6DSH or NDSH) was added to the cell strain ST2 are shown in FIG. 3, respectively.

cell strain ST2 [2] = assay: as above; format: cell-based, mouse; settings: 50 μg/ml sample, first week after confluence, vs control without sample (FIG. 3)
Description: as §1, §2, §3, §4

cell strain MC3T3-E1 [3] = assay: Cellular ALP activity, serum-free medium; format: cell-based, mouse; settings: 50 μg/ml sample, serum-free medium (FIG. 4)
Description: as §1
(§5) Cellular ALP activity was measured as the index of cell differentiation. […] On the first week after the cells reached confluent, ALP activity was measured by the following enzymologic method (Bessey-Lowry method).
as §3
(§6) The results of adding each sample to be tested (Hep, 2DSH, 6DSH or NDSH) to the cell strain MC3T3-E1 are shown in FIG. 4, and the results of adding each sample to be tested (Hep, 2DSH, 6DSH or NDSH) to the cell strain ST2 are shown in FIG. 5, respectively. In this connection, the calculated ALP activity was shown by a numerical value of cells per DNA weight.

cell strain ST2 [4] = assay: Cellular ALP activity, serum-free medium; format: cell-based, mouse; settings: 50 μg/ml sample, serum-free medium (FIG. 5)
Description: as §1, §5, §3, §6

cell strain MC3T3-E1 [5] = assay: Calcification ability, alizarin staining; format: cell-based, mouse; settings: MC3T3-E1, 50 μg/ml sample, first week after confluence
Description: as §2
(§7) In order to examine calcification ability of the cells, alizarin staining (ALZ staining; stained in red indicates accelerated calcification) was carried out in accordance with the usual way, in the aforementioned “Actions on cell differentiation (1)” on the first week after the cells reached confluent. The cells were washed with PBS, fixed with 10 neutral-buffered formalin and then stained with 0.01 Alizarin Red S (manufactured by Wako Pure Chemical Industries).

cell strain ST2 [6] = assay: Calcification ability, alizarin staining; format: cell-based, mouse; settings: ST2, 50 μg/ml sample, first week after confluence
Description: as §2, §7

Wistar rat [7] = assay: Transplantation under the cranial periosteum on hydroxyapatite carrier, HE staining, formation of hard tissue (bone); format: in vivo; settings: 3 mg/ml sample on hydroxyapatite under cranial periosteum, fourth and eighth week
Description: (§8) A Wistar rat of 8 weeks of age was subjected to general anesthesia with ethyl carbamate 20 solution at a dose of 0.5 ml per 100 g body weight, and then the forehead skin and periosteum were incised. Each sample to be tested (Hep, 2DSH, 6DSH or NDSH; 100 μl for each) diluted to a concentration of 3 mg/ml with PBS was transplanted under the cranial periosteum. In this case, hydroxyapatite was used as the carrier.
(§9) Specifically, a block of hydroxyapatite (size: 3 mm in length×2 mm in breadth×2 mm in height; adsorbs about 0.1 ml of solution) was soaked for 30 minutes in each sample to be tested of a concentration of 3 mg/ml. It was used for the transplantation.
A substance in which test sample-free PBS was used was used as the control.
Each animal was sacrificed on the fourth week and eighth week after transplantation of the sample to be tested. Then slices of the transplanted parts were prepared and subjected to hematoxylin-eosin staining (HE staining). It was observed under an optical microscope to evaluate degree of the formation of a hard tissue (bone).

Wistar rat [8] = assay: Transplantation under the cranial periosteum, ratio of area of formed bone to hydroxyapatite region (image analysis); format: in vivo; settings: 3 mg/ml sample on hydroxyapatite, fourth week and sixth week (FIG. 6)
Description: as §8, §9
In the same manner as in the aforementioned “5. Actions on cell differentiation (5)”, slices of the transplanted parts were prepared by sacrificing each animal on the fourth week and sixth week after transplantation of the sample to be tested (n=2 for each group). Ratio of the area of formed bone (hard tissue) to the area of the hydroxyapatite region observed in the image of said slice was analyzed by using an image analyzing software (Scion image; Scion Corporation).

Wistar rat [9] = assay: Transplantation under the cranial periosteum, ratio of area of bone tissue to total tissues (image analysis); format: in vivo; settings: 3 mg/ml sample on hydroxyapatite, fourth, eighth and twelfth week (FIG. 7)
Description: as §8, §9
In the same manner as in the aforementioned “5. Actions on cell differentiation (5)”, slices of the transplanted parts were prepared by sacrificing each animal on the fourth week, eighth week and twelfth week after transplantation of the sample to be tested (n=5 for each group). Ratio of the area of bone tissue to the area of the total tissues observed in the image of the slices of transplanted region was analyzed using an image analyzing software (Scion image; Scion Corporation). In this connection, the bars of respective weeks in FIG. 7 show the results in the control group, 2DSH group, 6DSH group, NDSH group and Hep group, respectively, starting from the left side.

cell strain MC3T3-E1 [10] = assay: Actions on cell growth, cell number by Coulter counter; format: cell-based, mouse; settings: 50 μg/ml sample, αMEM containing 2% FBS, days 0, 1, 3, 6 (FIG. 8)
Description: (§10) Respective cells were inoculated onto a 24 well culture plate (manufactured by Falcon) in 5×10^3 cells/well portions. Starting on the first day after the inoculation, each sample to be tested (Hep, 2DSH, 6DSH or NDSH) was added to the culture liquid (αMEM containing 2% FBS) to a final concentration of 50 μg/ml. On the zero day, first day, third day and sixth day after addition of the sample to be tested, the number of cells was counted using a Coulter counter (COULTER Z1, manufactured by Coulter Electronics Inc.). A case in which the sample to be tested was not added was used as the control.

cell strain ST2 [11] = assay: as above; format: cell-based, mouse; settings: 50 μg/ml sample, αMEM containing 2% FBS, days 0, 1, 3, 6 (FIG. 9)
Description: as §10

2-O-desulfated heparin [2DSH]
ALP activity of the cell strain MC3T3-E1 (cell strain MC3T3-E1 [1]): increased the ALP activity
ALP activity of the cell strain ST2 (cell strain ST2 [2]): increased the ALP activity
ALP activity of the cell strain MC3T3-E1 under the serum-free condition (cell strain MC3T3-E1 [3]): increased the ALP activity; also recorded: particularly effective
ALP activity of the cell strain ST2 under the serum-free condition (cell strain ST2 [4]): increased the ALP activity; also recorded: particularly effective
formation of calcification matter (alizarin staining) (cell strain MC3T3-E1 [5]): accelerated formation of calcification matter
formation of calcification matter (alizarin staining) (cell strain ST2 [6]): accelerated formation of calcification matter; also recorded: strong acceleration
formation of bone (HE staining, optical microscope) (Wistar rat [7]): formation of bone was observed; also recorded: Remarkable bone formation
ratio of the area of formed bone (hard tissue) to the area of the hydroxyapatite region (Wistar rat [8]): formation of bone (hard tissue) was confirmed within a broad range; also recorded: remarkable
ratio of the area of bone tissue to the area of the total tissues (Wistar rat [9]): formation of bone (hard tissue) was confirmed within a broad range; also recorded: remarkable
growth of the cell strain MC3T3-E1 (number of cells) (cell strain MC3T3-E1 [10]): small in comparison with that of Hep; also recorded: suppress growth
growth of the cell strain ST2 (number of cells) (cell strain ST2 [11]): accelerated growth

6-O-desulfated heparin [6DSH]
ALP activity of the cell strain MC3T3-E1 (cell strain MC3T3-E1 [1]): increased the ALP activity
ALP activity of the cell strain ST2 (cell strain ST2 [2]): increased the ALP activity
ALP activity of the cell strain MC3T3-E1 under the serum-free condition (cell strain MC3T3-E1 [3]): increased the ALP activity
ALP activity of the cell strain ST2 under the serum-free condition (cell strain ST2 [4]): increased the ALP activity
formation of calcification matter (alizarin staining) (cell strain MC3T3-E1 [5]): accelerated formation of calcification matter
formation of calcification matter (alizarin staining) (cell strain ST2 [6]): accelerated formation of calcification matter
formation of bone (HE staining, optical microscope) (Wistar rat [7]): formation of bone was observed
ratio of the area of formed bone (hard tissue) to the area of the hydroxyapatite region (Wistar rat [8]): formation of bone (hard tissue) was confirmed within a broad range
ratio of the area of bone tissue to the area of the total tissues (Wistar rat [9]): formation of bone (hard tissue) was confirmed within a broad range
growth of the cell strain MC3T3-E1 (number of cells) (cell strain MC3T3-E1 [10]): small in comparison with that of Hep; also recorded: suppress growth

N-desulfated heparin [NDSH]
ALP activity of the cell strain MC3T3-E1 (cell strain MC3T3-E1 [1]): increased the ALP activity
ALP activity of the cell strain ST2 (cell strain ST2 [2]): increased the ALP activity; also recorded: particularly effective
ALP activity of the cell strain MC3T3-E1 under the serum-free condition (cell strain MC3T3-E1 [3]): increased the ALP activity; also recorded: particularly effective
ALP activity of the cell strain ST2 under the serum-free condition (cell strain ST2 [4]): increased the ALP activity
formation of calcification matter (alizarin staining) (cell strain MC3T3-E1 [5]): accelerated formation of calcification matter
formation of calcification matter (alizarin staining) (cell strain ST2 [6]): accelerated formation of calcification matter; also recorded: strong acceleration
formation of bone (HE staining, optical microscope) (Wistar rat [7]): formation of bone was observed
ratio of the area of formed bone (hard tissue) to the area of the hydroxyapatite region (Wistar rat [8]): formation of bone (hard tissue) was confirmed within a broad range; also recorded: remarkable
ratio of the area of bone tissue to the area of the total tissues (Wistar rat [9]): formation of bone (hard tissue) was confirmed within a broad range; also recorded: remarkable
growth of the cell strain MC3T3-E1 (number of cells) (cell strain MC3T3-E1 [10]): small in comparison with that of Hep; also recorded: suppress growth

heparin [reference compound]
ALP activity of the cell strain MC3T3-E1 (cell strain MC3T3-E1 [1]): increased the ALP activity; also recorded: particularly effective
ALP activity of the cell strain ST2 (cell strain ST2 [2]): increased the ALP activity
ALP activity of the cell strain MC3T3-E1 under the serum-free condition (cell strain MC3T3-E1 [3]): increased the ALP activity; also recorded: particularly effective
ALP activity of the cell strain ST2 under the serum-free condition (cell strain ST2 [4]): increased the ALP activity
formation of calcification matter (alizarin staining) (cell strain MC3T3-E1 [5]): accelerated formation of calcification matter
formation of calcification matter (alizarin staining) (cell strain ST2 [6]): accelerated formation of calcification matter; also recorded: strong acceleration
formation of bone (HE staining, optical microscope) (Wistar rat [7]): formation of bone was observed
ratio of the area of formed bone (hard tissue) to the area of the hydroxyapatite region (Wistar rat [8]): formation of bone (hard tissue) was confirmed within a broad range
ratio of the area of bone tissue to the area of the total tissues (Wistar rat [9]): formation of bone (hard tissue) was confirmed within a broad range; also recorded: remarkable
growth of the cell strain MC3T3-E1 (number of cells) (cell strain MC3T3-E1 [10]): suppress growth
growth of the cell strain ST2 (number of cells) (cell strain ST2 [11]): suppressed it
